How the values were obtained:
[1] = cell culture and animal studies; cited from earlier work
[2] = tested on: human adipocytes; test: qRT-PCR in human adipocytes (hADSC) treated two days with naringenin and inhibitors; format: cell-based; details: for CPT1β mRNA expression compared to control / UCP1 mRNA expression compared to control: naringenin 30 μM (whole orange extract), two days
Procedure: Human white adipocytes were treated for 2d with naringenin in the presence of inhibitors of metabolic pathways to determine the mechanism of action for stimulating fat oxidation and thermogenic energy expenditure.
Naringenin increased UCP1 and CPT1β mRNA induction compared to control (p<0.001). PPARα and PPARγ inhibition reduced UCP1 and CPT1β mRNA expression (p<0.001). Each experiment was conducted with three biological replicates and four technical replicates.
The whole orange extract was dissolved in DMSO at 15 mM (based on 28% naringenin content) and added to cells at a dilution of 1:500 to achieve a final concentration of 30 μM. The inhibitors added to the naringenin-treated cells included: peroxisome proliferator-activated receptor alpha (PPARα) antagonist GW6471 and peroxisome proliferator-activated receptor gamma (PPARγ) antagonist GW9662 (Cayman Chemical, Ann Arbor, Mich.) at 10 μM concentration, protein kinase A (PKA) inhibitor H89 (Millipore Sigma, Burlington, Mass.) at 20 μM concentration, and protein kinase G (PKG) inhibitor […] (Biolog Life Science Institute, AXXORA, LLC, Farmingdale, N.Y.) at 50 μM concentration. GW6471 and GW9662 were dissolved in DMSO at 1000×, H89 was dissolved in PBS at 500×, and Rp-8-pCPT-cGMPS was dissolved in PBS at 100× prior to dilution in cell culture medium. Following a two-day treatment, the cells were harvested with Trizol reagent. RNeasy Mini Kit (Qiagen, Germantown, Md.) was used to isolate total RNA following manufacturer's protocol. The expression of UCP1, CPT1β, and GLUT4 was quantified with one-step reverse transcriptase PCR using the reverse PCR primer to prime cDNA synthesis as previously described.^6

[3] = 150 mg three times a day for eight weeks (Murugesan et al., 2020); cited from earlier work
[4] = cited from earlier work
[5] = tested on: human adipocytes; test: Western blotting of protein levels in treated human adipocytes; format: cell-based
Procedure: Referring to FIG. 2, human adipocyte cultures were treated with naringenin for 0, 3 or 7d. Total protein was isolated and analyzed by Western Blotting. […] TGX SDS-PAGE gels (7.5%TM, BioRad) were used to separate 50 μg of solubilized protein per sample. Following transfer, nitrocellulose membranes were probed overnight at 4° C. with primary monoclonal antibodies against adiponectin, NAMPT, and PPARγ (Santa Cruz), PGC-1α monoclonal (4C1.3, EMDmillipore) and β-Actin (A5316, Sigma). HRP-linked anti-rabbit (12-348, Sigma) and anti-mouse (A[…], Sigma) were used to detect specific antibody-antigen complexes. Proteins were visualized by chemiluminescence (Western Lightning Plus-ECL, PerkinElmer, Waltham, Mass.). Bands were quantified using ImageJ software and values shown are normalized to β-actin.

**Q.** With `O=C1C[C@@H](c2ccc(O)cc2)Oc2cc(O)cc(O)c21` [naringenin] as the molecule, how does the “concentration needed to elicit a physiologic response” value [1] read?
**A.** 1-200 μm

**Q.** And the “CPT1β mRNA expression compared to control” value [2]?
**A.** more than three-fold

**Q.** And the “UCP1 mRNA expression compared to control” value [2]?
**A.** more than three-fold

**Q.** What about the “CPT1β mRNA expression compared to control” value ([2]; listed as Naringenin) of the same molecule?
**A.** increased

**Q.** And the “UCP1 mRNA expression compared to control” value ([2]; listed as Naringenin)?
**A.** increased

**Q.** And the “GLUT4 mRNA expression” value ([2]; naringenin, two-day period)?
**A.** no increase

**Q.** What about the body weight reduction [3] of the same molecule?
**A.** 2.5%

**Q.** What about the “serum concentrations of naringenin” value ([4]; after orange juice and fruit) of the same molecule?
**A.** < 1 μm

**Q.** And the presence in serum ([4]; lowest dose of 150 mg)?
**A.** present in serum at concentrations sufficient to elicit a physiologic response

**Q.** And the physiologically attainable concentration ([4]; pharmacokinetic studies in humans)?
**A.** 10 μM

**Q.** What about the adverse events ([4]; single ascending dose trial of whole orange extract) of the same molecule?
**A.** no adverse events were observed at any dose

**Q.** What about the “protein levels of UCP1, GLUT4, and ChREBP” value ([5]; 10 μM naringenin for 7 days) of the same molecule?
**A.** Corresponding increases

**Q.** And the “AMPK activation (phospho-AMPK)” value ([5]; naringenin 0, 3 or 7d)?
**A.** activates AMPK

Source: patent publication US20210260022A1, “SYNERGY FOR INCREASING ENERGY EXPENDITURE AND INSULIN SENSITIVITY” (The Board of Supervisors of Louisiana State University and …, priority 2018, published 2021)
